# US5034390A, “Pyridyl-and pyrmidyl-piperazines useful for the treatment of mental disorders” (Pharmacia AB, priority 1988, dated 1991)
# Counter-ions that a name gives are not always drawn.
# Experiments:
# [1] = biological target: T1, 5-HT2 receptors (Rattus norvegicus, UniProt P14842); assay: Affinity to 5-HT2 receptors (3H-ketanserine binding assay, Leysen et al.); conditions: 3H-ketanserine as ligand
# T1 construct: from tissue
# Procedure: The binding assay is carried out essentially as described by Leysen et al. (Mol. Pharmacol. 21, 301-14, 1982) using ^3 H-ketanserine as ligand.
# [2] = combined 5-HT2/D2 affinity; cited from earlier work
# T1 sequence (P14842 whole entry): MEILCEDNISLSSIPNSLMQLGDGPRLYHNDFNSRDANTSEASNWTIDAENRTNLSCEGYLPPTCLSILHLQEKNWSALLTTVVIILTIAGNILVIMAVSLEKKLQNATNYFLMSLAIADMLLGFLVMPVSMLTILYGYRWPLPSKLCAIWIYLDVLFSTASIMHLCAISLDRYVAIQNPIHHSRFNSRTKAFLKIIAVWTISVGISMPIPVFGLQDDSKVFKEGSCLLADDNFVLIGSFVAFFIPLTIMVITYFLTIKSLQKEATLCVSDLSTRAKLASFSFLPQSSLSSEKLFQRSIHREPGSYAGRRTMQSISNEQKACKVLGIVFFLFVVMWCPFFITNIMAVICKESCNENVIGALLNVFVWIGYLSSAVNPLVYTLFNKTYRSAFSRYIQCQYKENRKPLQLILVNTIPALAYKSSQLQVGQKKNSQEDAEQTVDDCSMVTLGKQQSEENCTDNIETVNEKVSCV
structure (smiles),measurement,setting,value
"Fc1ccc(CCCCN2CCN(c3cccc(Cl)n3)CC2)cc1 [2:9, 4-/4-(p-fluorophenyl)butyl/-1-/6-chloro-2-pyridyl/piperazine hydrochloride]",Ki,[1],7 nM
"COc1cccc(N2CCN(CCCOc3ccc(F)cc3)CC2)n1 [2:10, 4-/3-(p-fluorophenoxy)propyl/-1-/6-methoxy-2-pyridyl/piperazine fumarate]",Ki,[1],11 nM
"NC(=O)c1cccnc1N1CCN(CCCSc2ccc(F)cc2)CC1 [2:19, 4-/3-(p-fluorothiophenoxy)propyl/-1-/3-carbamyl-2-pyridyl/piperazine dihydrochloride]",Ki,[1],7 nM
CN1CCN(C2=Nc3cc(Cl)ccc3Nc3ccccc32)CC1 [clozapine],antipsychotic effect / extrapyramidal side-effects,[2],antipsychotic effect with a low degree of extrapyramidal side-effects
